Measurements taken from patent publication US11634443B2, “Treprostinil prodrugs” (United Therapeutics Corporation, priority 2019, dated 2023).
Read-outs that look alike come from different tables or passages of the source.

Columns and labels:
[1] = microsomes
Method: (§3) Mixed-gender human liver microsomes, male Sprague-Dawley rat liver microsomes, and male Beagle dog liver microsomes were purchased from XenoTech. The reaction mixture, minus NADPH, was prepared as described below. […] An aliquot of the reaction mixture (without cofactor) was equilibrated in a shaking water bath at 37° C. for 5 minutes. The reaction was initiated by the addition of cofactor, and the mixture was incubated in a shaking water bath at 37° C. Aliquots (200 μL) were withdrawn at 0, 10, 20, 30, and 60 minutes. Test article samples were immediately combined with 400 μL of ice-cold acetonitrile (ACN) to terminate the reaction. […] The samples were then mixed and centrifuged to precipitate proteins. Aliquots of the supernatant were removed, diluted 1:1 into distilled water containing internal standard, and analyzed by LC-MS/MS against calibration standards prepared in a matched matrix. All samples were analyzed for the dosed prodrugs as well as the drug, treprostinil. The test article concentration was compared to the concentration at time 0 to determine the percent of test article remaining at each time point. Half-lives and clearance were calculated using GraphPad software, fitting to a single-phase exponential decay equation.
Liver Microsomes 0.5 mg/mL
Potassium Phosphate, pH 7.4 100 mM

[2] = Plasma stability and formation of treprostinil, rat plasma; format: in vitro ADME; settings: for Formation of Treprostinil, Concentration: prodrug dosed at 1 μM; for Half-Life / Percent Remaining: 1 μM, 37° C.
Method: (§1) Studies were carried out in mixed-gender human plasma male Sprague-Dawley rat plasma, and male Beagle dog plasma. All plasma was obtained from Bioreclamation and collected on K2EDTA. Plasma was adjusted to pH 7.4 prior to initiating the experiments. DMSO stocks were first prepared for the test articles. […] The vials were kept in a benchtop Thermomixer® for the duration of the experiment. […] Samples were stored at 4° C. until the end of the experiment. After the final time point was sampled, the plate was mixed and then centrifuged at 3000 rpm for 10 minutes.

[3] = microsomes; remark: listed apart in the source
Method: as §3
Liver Microsomes 0.5 mg/mL
Potassium Phosphate, pH 7.4 100 mM

[4] = Plasma stability and formation of treprostinil, dog plasma; format: in vitro ADME; settings: for Formation of Treprostinil, Concentration: prodrug dosed at 1 μM; for Half-Life / Percent Remaining: 1 μM, 37° C.
Method: as §1

[5] = Stability and formation of treprostinil in human cryopreserved hepatocytes
Method: (§2) Mixed-gender human cryopreserved hepatocytes, male Sprague-Dawley rat cryopreserved hepatocytes, and male Beagle dog cryopreserved hepatocytes were purchased from XenoTech. The hepatocytes were thawed and prepared according to the vendor's instructions, pooled into Krebs Henseleit buffer (KHB, pH 7.4), and kept on ice prior to the experiments. […] The final DMSO content in the incubation mixture was ≤0.1%. […] Aliquots of the test article were withdrawn (n=1) at 0, 15, 30, 60, and 120 minutes. […] Aliquots of 7-HC were withdrawn (n=1) at 0 and 15 minutes. The reaction was immediately terminated by adding two volumes of ice-cold acetonitrile (ACN) to the test article samples and three volumes of ACN containing internal standard to the positive control samples.

[6] = target: T1, prostaglandin I2 (PGI2) receptor (IP) (Homo sapiens, UniProt P43119); test: IP receptor cAMP assay (agonist mode); format: cell-based; settings: cAMP, cells overexpressing human IP
T1 construct: expressed in transfected cells; host or cells: CHO-K1

[7] = Hydrolysis of treprostinil prodrugs to treprostinil at pH 6, 7 and 8 and 40 C; format: physicochemical
Description: Tables 26, 27 and 28 present data for hydrolysis of selected treprostinil prodrugs at pH 6, 7 and 8, respectively, and 40 C.

[8] = target: T2, prostaglandin D2 (PGD2) receptor 1 (DP1) (Homo sapiens, UniProt Q13258); test: DP1 receptor cAMP assay (agonist mode); format: cell-based; settings: for Activity at the DP1 receptor compared to treprostinil: cAMP, cells overexpressing human DP1; for Activity, DP1 Relative to Tre: relative to treprostinil EC50 values, * partial agonists or ambiguous dose-response curves
T2 construct: expressed in transfected cells; host or cells: HEK293T
T2 sequence (Q13258 1-359): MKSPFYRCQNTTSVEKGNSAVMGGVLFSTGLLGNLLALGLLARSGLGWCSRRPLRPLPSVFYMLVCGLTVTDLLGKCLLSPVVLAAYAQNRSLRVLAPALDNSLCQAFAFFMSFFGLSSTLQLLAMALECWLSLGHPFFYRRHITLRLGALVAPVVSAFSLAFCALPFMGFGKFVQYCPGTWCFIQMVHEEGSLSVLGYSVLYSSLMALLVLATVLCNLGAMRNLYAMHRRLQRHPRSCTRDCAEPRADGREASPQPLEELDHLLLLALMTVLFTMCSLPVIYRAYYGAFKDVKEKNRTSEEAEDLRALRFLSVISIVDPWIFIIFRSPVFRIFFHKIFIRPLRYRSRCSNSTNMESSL

[9] = target: T3, prostaglandin E2 (PGE2) receptor 2 (EP2) (Homo sapiens, UniProt P43116); test: EP2 receptor cAMP assay (agonist mode); format: cell-based; settings: cAMP, cells overexpressing human EP2
T3 construct: expressed in transfected cells; host or cells: HEK293T
Method: Assay Buffer: • EP1 Calcium and DP1 cAMP Assays: HBSS plus 20 mM HEPES • EP2 and IP1 cAMP Assays: 1 mM IBMX in HBSS plus 20 mM HEPES
Cells were thawed from frozen cells and resuspended in assay buffer at desired concentrations. cAMP or Calcium assays were performed according to the manufacturer's protocol using Multiscreen™ TR-FRET cAMP 1.0 No Wash Assay Kit or Multiscreen™ Calcium 1.0 No Wash Kit.
Gas Cyclic AMP (cAMP) Assay: In agonist mode testing, cells were seeded in a 384-well plate at an appropriate density and then were treated with compounds and incubated at 37° C. for 20 minutes. The reaction was terminated by sequentially adding sequentially adding trFluor™ Eu-labeled cAMP and trFluor™ 650-labeled anti-cAMP antibody in lysis buffer. […] All testing wells contained 0.1% DMSO in the final concentrations.
Data in graphs are represented in Mean±SD. Dose-dependent responses were fitted with sigmoidal dose-response curves allowing variable slopes using GraphPad Prism version 6 (Graphpad Prism).
These studies used cell lines overexpressing either human IP, EP2 or DP1, or EP1 receptors, and following incubation with varying concentrations of compounds, cAMP levels were measured using Fluorescence Resonance Energy Transfer (FRET).

[10] = Stability and formation of treprostinil in dog cryopreserved hepatocytes; settings: for CLint / Half-Life: hepatocytes
Method: as §2

[11] = Stability and formation of treprostinil in simulated intestinal fluid; format: in vitro ADME; settings: for Half-Life / Percent Remaining: SIF pH 6.8, 1 μM, 37° C.; for Formation of Treprostinil, Concentration: SIF, prodrug dosed at 1 μM
Method: Studies were carried out in simulated intestinal fluid (SIF). SIF was prepared by dissolving 6.8 g of KH2PO4 in 250 mL of water, mixing, and then adding 77 mL of 0.2 N NaOH and 750 mL of water. Pancreatin (10 g) was added, mixed, and the pH was adjusted to pH 6.8 with 10 N NaOH. DMSO stocks were first prepared for the test articles. Aliquots of the DMSO solutions were dosed into 0.4 mL of matrix, which had been pre-warmed to 37° C., at a final test article concentration of 1 μM. The vials were kept in a benchtop Thermomixer® for the duration of the experiment. A separate tube was dosed for each time point in each matrix. At the appropriate times (0, 15, 30, 60, and 120 minutes), 0.8 mL of acetonitrile (ACN) containing 1% formic acid and internal standard was added directly to a single tube. Samples were mixed and then immediately stored at 4° C. until the end of the experiment. After the final time point was sampled, the plate was mixed and then centrifuged at 3000 rpm for 10 minutes. Aliquots of the supernatant were removed, diluted 1:1 into distilled water containing internal standard, and analyzed by LC-MS/MS against calibration standards prepared in a matched matrix. All samples were analyzed for the dosed prodrugs as well as the drug, treprostinil. The test article concentration was compared to the concentration at time 0 to determine the percent of test article remaining at each time point. Half-lives were calculated using GraphPad software, fitting to a single-phase exponential decay equation.

[12] = Stability and formation of treprostinil in rat cryopreserved hepatocytes
Method: as §2

[13] = Plasma stability and formation of treprostinil, human plasma; format: in vitro ADME; settings: for Formation of Treprostinil, Concentration: prodrug dosed at 1 μM; for Half-Life / Percent Remaining: 1 μM, 37° C.
Method: as §1

T1 sequence (P43119 whole entry): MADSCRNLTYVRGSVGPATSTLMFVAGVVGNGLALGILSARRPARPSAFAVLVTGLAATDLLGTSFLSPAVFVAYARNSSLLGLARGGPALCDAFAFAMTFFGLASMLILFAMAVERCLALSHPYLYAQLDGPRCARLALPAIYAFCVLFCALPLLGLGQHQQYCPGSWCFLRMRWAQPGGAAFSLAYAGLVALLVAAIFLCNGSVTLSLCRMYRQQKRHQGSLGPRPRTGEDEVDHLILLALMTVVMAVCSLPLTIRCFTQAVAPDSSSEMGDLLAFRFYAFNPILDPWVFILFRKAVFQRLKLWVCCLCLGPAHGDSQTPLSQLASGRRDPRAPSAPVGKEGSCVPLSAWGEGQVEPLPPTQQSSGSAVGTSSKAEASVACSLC
T3 sequence (P43116 whole entry): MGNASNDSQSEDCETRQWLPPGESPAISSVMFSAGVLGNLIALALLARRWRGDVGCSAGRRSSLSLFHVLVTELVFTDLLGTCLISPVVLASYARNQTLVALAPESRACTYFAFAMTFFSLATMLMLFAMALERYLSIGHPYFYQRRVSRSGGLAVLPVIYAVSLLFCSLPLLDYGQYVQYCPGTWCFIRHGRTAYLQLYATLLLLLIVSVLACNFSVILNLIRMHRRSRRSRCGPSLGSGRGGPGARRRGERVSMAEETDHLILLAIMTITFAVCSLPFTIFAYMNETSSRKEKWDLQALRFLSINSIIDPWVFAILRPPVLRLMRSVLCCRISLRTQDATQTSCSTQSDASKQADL

treprostinil diacetate [Prodrug LXXII]
Half-Life [1]: <0.167 h
Formation of Treprostinil, Concentration ([2]; 0 min): 0 µM
Half-Life [2]: >2 h
Formation of Treprostinil, Concentration ([2]; 60 mm): 0.00595 µM
Formation of Treprostinil, Concentration ([2]; 15 min): 0 µM
Formation of Treprostinil, Concentration ([2]; 30 min): 0 µM
Percent Remaining ([2]; 60 min): 83.6%
Percent Remaining ([2]; 120 min): 79.7%
Formation of Treprostinil, Concentration ([2]; 120 min): 0.0151 µM
Half-Life [3]: <0.167 h
Formation of Treprostinil, Concentration ([4]; 0 min): 0 µM
Half-Life [4]: >2 h
Percent Remaining ([4]; 15 min): 96.7%
Formation of Treprostinil, Concentration ([4]; 15 min): 0 µM
Formation of Treprostinil, Concentration ([4]; 30 min): 0 µM
Percent Remaining ([4]; 120 min): 82.9%
Formation of Treprostinil, Concentration ([4]; 120 min): 0 µM
Formation of Treprostinil, Concentration [4]: 0 µM
Treprostinil Concentration, 0 min [5]: 0.00458 µM
Treprostinil Concentration, 15 min [5]: 0.562 µM
Treprostinil Concentration, 30 min [5]: 0.491 µM
Treprostinil Concentration, 60 min [5]: 0.433 µM
Treprostinil Concentration, 120 min [5]: 0.364 µM
Activity at the IP receptor compared to treprostinil [6]: inactive
Hydrolysis of prodrug to treprostinil, % Area, t = 1 week ([7]; pH 6, 40 C): 0.00 % Area
Hydrolysis of prodrug to treprostinil, % Area, t = 2 weeks ([7]; pH 6, 40 C): 0.00 % Area
Hydrolysis of prodrug to treprostinil, % Area, t = 3 weeks ([7]; pH 6, 40 C): 0.00 % Area
Hydrolysis of prodrug to treprostinil, % Area, t = 1 week ([7]; pH 7, 40 C): 0.00 % Area
Hydrolysis of prodrug to treprostinil, % Area, t = 2 weeks ([7]; pH 7, 40 C): 0.00 % Area
Hydrolysis of prodrug to treprostinil, % Area, t = 3 weeks ([7]; pH 7, 40 C): 0.00 % Area
Hydrolysis of prodrug to treprostinil, % Area, t = 1 week ([7]; pH 8, 40 C): 0.00 % Area
Hydrolysis of prodrug to treprostinil, % Area, t = 2 weeks ([7]; pH 8, 40 C): 0.00 % Area
Hydrolysis of prodrug to treprostinil, % Area, t = 3 weeks ([7]; pH 8, 40 C): 0.00 % Area
Activity at the DP1 receptor compared to treprostinil [8]: several hundred-fold less active
Activity at the EP2 receptor compared to treprostinil [9]: non-traditional dose response curve
Treprostinil Concentration, 0 min [10]: 0.0636 µM
Treprostinil Concentration, 15 min [10]: 0.671 µM
Treprostinil Concentration, 30 min [10]: 0.541 µM
Treprostinil Concentration, 60 min [10]: 0.465 µM
Treprostinil Concentration, 120 min [10]: 0.401 µM
CLint [10]: >0.0308 mL/min/mg protein
Half-Life [10]: <0.25 h
Half-Life [11]: >2 h
Formation of Treprostinil, Concentration ([11]; 0 min): 0 µM
Formation of Treprostinil, Concentration ([11]; 15 min): 0 µM
Formation of Treprostinil, Concentration ([11]; 30 min): 0 µM
Formation of Treprostinil, Concentration ([11]; 60 min): 0 µM
Formation of Treprostinil, Concentration ([11]; 120 min): 0.0126 µM
Treprostinil Concentration, 0 min [12]: 0 µM
Treprostinil Concentration, 15 min [12]: 0.24 µM
Treprostinil Concentration, 30 min [12]: 0.301 µM
Treprostinil Concentration, 60 min [12]: 0.298 µM
Treprostinil Concentration, 120 min [12]: 0.274 µM
Formation of Treprostinil, Concentration ([13]; 0 min): 0 µM
Half-Life [13]: >2 h
Formation of Treprostinil, Concentration ([13]; 15 min): 0 µM
Formation of Treprostinil, Concentration ([13]; 30 min): 0 µM
Percent Remaining ([13]; 120 min): 86.5%
Formation of Treprostinil, Concentration ([13]; 120 min): 0 µM
Formation of Treprostinil, Concentration [13]: 0 µM

treprostinil dipropionate [Prodrug LXX]
Half-Life [1]: <0.167 h
Percent Remaining ([2]; 0 min): 100%
Formation of Treprostinil, Concentration ([2]; 0 min): 0 µM
Half-Life [2]: 1.7 h
Formation of Treprostinil, Concentration ([2]; 60 mm): 0.0331 µM
Percent Remaining ([2]; 15 min): 98.3%
Formation of Treprostinil, Concentration ([2]; 15 min): 0.00392 µM
Percent Remaining ([2]; 30 min): 80.3%
Formation of Treprostinil, Concentration ([2]; 30 min): 0.0101 µM
Percent Remaining ([2]; 60 min): 69.3%
Percent Remaining ([2]; 120 min): 45.0%
Formation of Treprostinil, Concentration ([2]; 120 min): 0.0768 µM
Half-Life [3]: <0.167 h
Percent Remaining ([4]; 0 min): 100%
Formation of Treprostinil, Concentration ([4]; 0 min): 0 µM
Half-Life [4]: >2 h
Percent Remaining ([4]; 15 min): 103%
Formation of Treprostinil, Concentration ([4]; 15 min): 0 µM
Percent Remaining ([4]; 30 min): 116%
Formation of Treprostinil, Concentration ([4]; 30 min): 0 µM
Percent Remaining ([4]; 60 min): 97.4%
Percent Remaining ([4]; 120 min): 91.4%
Formation of Treprostinil, Concentration ([4]; 120 min): 0 µM
Formation of Treprostinil, Concentration [4]: 0 µM
Treprostinil Concentration, 0 min [5]: 0.00542 µM
Treprostinil Concentration, 15 min [5]: 0.638 µM
Treprostinil Concentration, 30 min [5]: 0.556 µM
Treprostinil Concentration, 60 min [5]: 0.482 µM
Treprostinil Concentration, 120 min [5]: 0.413 µM
Activity at the IP receptor compared to treprostinil [6]: inactive
Hydrolysis of prodrug to treprostinil, % Area, t = 1 week ([7]; pH 6, 40 C): 0.00 % Area
Hydrolysis of prodrug to treprostinil, % Area, t = 2 weeks ([7]; pH 6, 40 C): 0.00 % Area
Hydrolysis of prodrug to treprostinil, % Area, t = 3 weeks ([7]; pH 6, 40 C): 0.00 % Area
Hydrolysis of prodrug to treprostinil, % Area, t = 1 week ([7]; pH 7, 40 C): 0.00 % Area
Hydrolysis of prodrug to treprostinil, % Area, t = 2 weeks ([7]; pH 7, 40 C): 0.00 % Area
Hydrolysis of prodrug to treprostinil, % Area, t = 3 weeks ([7]; pH 7, 40 C): 0.00 % Area
Hydrolysis of prodrug to treprostinil, % Area, t = 1 week ([7]; pH 8, 40 C): 0.00 % Area
Hydrolysis of prodrug to treprostinil, % Area, t = 2 weeks ([7]; pH 8, 40 C): 0.00 % Area
Hydrolysis of prodrug to treprostinil, % Area, t = 3 weeks ([7]; pH 8, 40 C): 0.00 % Area
EC50 Fold Different from Treprostinil, DP1 Receptor ([8]; Table 20, agonist mode, NC = too inactive to realistically calculate, * partial agonists or odd dose-response curves): 410x*
Activity, DP1 Relative to Tre ([8]; Table 24, image character = too high to realistically calculate): 410x
Activity, DP1 Relative to Tre ([8]; Table 25): 410x
Activity at the DP1 receptor compared to treprostinil [8]: several hundred-fold less active
Activity at the EP2 receptor compared to treprostinil [9]: inactive
Treprostinil Concentration, 0 min [10]: 0.0959 µM
Treprostinil Concentration, 15 min [10]: 0.736 µM
Treprostinil Concentration, 30 min [10]: 0.597 µM
Treprostinil Concentration, 60 min [10]: 0.511 µM
Treprostinil Concentration, 120 min [10]: 0.445 µM
CLint [10]: >0.0308 mL/min/mg protein
Half-Life [10]: <0.25 h
Percent Remaining ([11]; 0 min): 100%
Half-Life [11]: >2 h
Percent Remaining ([11]; 15 min): 97.2%
Percent Remaining ([11]; 30 min): 104%
Percent Remaining ([11]; 60 min): 93.6%
Percent Remaining ([11]; 120 min): 86.2%
Formation of Treprostinil, Concentration ([11]; 0 min): 0 µM
Formation of Treprostinil, Concentration ([11]; 15 min): 0 µM
Formation of Treprostinil, Concentration ([11]; 30 min): 0 µM
Formation of Treprostinil, Concentration ([11]; 60 min): 0.00415 µM
Formation of Treprostinil, Concentration ([11]; 120 min): 0.0720 µM
Treprostinil Concentration, 0 min [12]: 0 µM
Treprostinil Concentration, 15 min [12]: 0.606 µM
Treprostinil Concentration, 30 min [12]: 0.579 µM
Treprostinil Concentration, 60 min [12]: 0.484 µM
Treprostinil Concentration, 120 min [12]: 0.405 µM
Percent Remaining ([13]; 0 min): 100%
Formation of Treprostinil, Concentration ([13]; 0 min): 0 µM
Half-Life [13]: >2 h
Percent Remaining ([13]; 15 min): 92.4%
Formation of Treprostinil, Concentration ([13]; 15 min): 0 µM
Percent Remaining ([13]; 30 min): 102%
Formation of Treprostinil, Concentration ([13]; 30 min): 0 µM
Percent Remaining ([13]; 60 min): 93.3%
Percent Remaining ([13]; 120 min): 103%
Formation of Treprostinil, Concentration ([13]; 120 min): 0 µM
Formation of Treprostinil, Concentration [13]: 0 µM
